# Measurements published in patent publication US10472347B2, “Aminopyrazine compounds with A2A antagonist properties” (Merck Sharp & Dohme Corp., priority 2014, dated 2019).
# Target: T1, human A2a receptor (Homo sapiens, UniProt P29274)
# T1 construct: purchased Perkin-Elmer RBHA2AM400UA; host or cells: HEK293 cells (membranes)
# Test: A2a competition binding assay, Scintillation Proximity technology
# Settings: membranes from HEK293 cells expressing human A2a receptor; Ki by Cheng-Prusoff equation
# Procedure, shortened: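 Membranes from HEK293 cells expressing human A2a, adenosine deaminase-treated, incubated 1 h at room temperature with compound (3000 to 0.15 nM) and 0.5 nM tritiated pyrazolotriazolopyrimidine radioligand on WGA SPA beads in Ca/Mg-free PBS + 10 mM MgCl2. Non-specific binding with 1 μM CGS15943; Ki by Cheng-Prusoff.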
# T1 sequence (P29274 whole entry): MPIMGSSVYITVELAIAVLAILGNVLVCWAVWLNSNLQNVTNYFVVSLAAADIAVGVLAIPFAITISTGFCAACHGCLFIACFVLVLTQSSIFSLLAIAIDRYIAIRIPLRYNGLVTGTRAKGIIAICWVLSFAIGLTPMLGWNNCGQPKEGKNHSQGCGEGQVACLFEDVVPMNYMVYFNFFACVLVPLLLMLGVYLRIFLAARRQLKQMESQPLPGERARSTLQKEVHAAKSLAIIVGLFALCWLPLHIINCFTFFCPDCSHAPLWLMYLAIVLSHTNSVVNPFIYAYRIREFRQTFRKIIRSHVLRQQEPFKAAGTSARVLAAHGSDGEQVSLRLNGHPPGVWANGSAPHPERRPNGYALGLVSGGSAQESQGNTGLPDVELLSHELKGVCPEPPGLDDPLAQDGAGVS
row,Ki [nM],Compound
1,1.2,"Cc1nc(C(=O)N[C@@H]2c3ccccc3C[C@H]2O)c(N)nc1-c1ncco1 [Ex-159, 3-amino-N-[(1R,2R)-2-hydroxy-2,3-dihydro-1H-inden-1-yl]-6-methyl-5-(1,3-oxazol-2-yl)pyrazine-2-carboxamide]"
2,264,"Cc1nc(C(=O)NCc2nnc3n2CCC3)c(N)nc1-c1ncco1 [Ex-160, 3-amino-N-(6,7-dihydro-5H-pyrrolo[2,1-c][1,2,4]triazol-3-ylmethyl)-6-methyl-5-(1,3-oxazol-2-yl)pyrazine-2-carboxamide]"
3,0.293,"Cc1nc(C(=O)NCc2n[nH]c3c2CCCCC3)c(N)nc1-c1ncco1 [Ex-161, 3-amino-N-(1,4,5,6,7,8-hexahydrocyclohepta[c]pyrazol-3-ylmethyl)-6-methyl-5-(1,3-oxazol-2-yl)pyrazine-2-carboxamide]"
4,0.333,"Cc1nc(C(=O)NCc2nccc(F)c2C)c(N)nc1-c1ncco1 [Ex-162, 3-amino-N-[(4-fluoro-3-methylpyridin-2-yl)methyl]-6-methyl-5-(1,3-oxazol-2-yl)pyrazine-2-carboxamide]"
5,0.197,"CCc1c(F)ccnc1CNC(=O)c1nc(C)c(-c2ncco2)nc1N [Ex-163, 3-amino-N-[(3-ethyl-4-fluoropyridin-2-yl)methyl]-6-methyl-5-(1,3-oxazol-2-yl)pyrazine-2-carboxamide]"
6,1.29,"Cc1nc(C(=O)NCc2nc3ccccc3[nH]2)c(N)nc1-c1ncco1 [Ex-164, 3-amino-N-(1H-benzimidazol-2-ylmethyl)-6-methyl-5-(1,3-oxazol-2-yl)pyrazine-2-carboxamide]"
7,0.599,"CCn1ncnc1CNC(=O)c1nc(C)c(-c2ncco2)nc1N [Ex-166, 3-amino-N-[(1-ethyl-1H-1,2,4-triazol-5-yl)methyl]-6-methyl-5-(1,3-oxazol-2-yl)pyrazine-2-carboxamide]"
8,0.158,"CCOc1cccnc1CNC(=O)c1nc(C)c(-c2ncco2)nc1N [Ex-167, 3-amino-N-[(3-ethoxypyridin-2-yl)methyl]-6-methyl-5-(1,3-oxazol-2-yl)pyrazine-2-carboxamide]"
9,0.375,"Cc1nc(C(=O)NCc2ncc(F)cc2C2CC2)c(N)nc1-c1ncco1 [Ex-169, 3-amino-N-[(3-cyclopropyl-5-fluoropyridin-2-yl)methyl]-6-methyl-5-(1,3-oxazol-2-yl)pyrazine-2-carboxamide]"
10,0.482,"Cc1nc(C(=O)NCc2nn(C)cc2C2CC2)c(N)nc1-c1ncco1 [Ex-170, 3-amino-N-[(4-cyclopropyl-1-methyl-1H-pyrazol-3-yl)methyl]-6-methyl-5-(1,3-oxazol-2-yl)pyrazine-2-carboxmamide]"
11,3.05,"Cc1nc(C(=O)NCc2nccnc2F)c(N)nc1-c1ncco1 [Ex-172, 3-amino-N-[(3-fluoropyrazin-2-yl)methyl]-6-methyl-5-(1,3-oxazol-2-yl)pyrazine-2-carboxamide]"
12,0.191,"CCOc1cccc(F)c1CNC(=O)c1nc(C)c(-c2ncco2)nc1N [Ex-173, 3-amino-N-(2-ethoxy-6-fluorobenzyl)-6-methyl-5-(1,3-oxazol-2-yl)pyrazine-2-carboxamide]"
13,2.96,"Cc1nc(C(=O)NCc2nn(C)c3c2CCC3)c(N)nc1-c1ncco1 [Ex-174, 3-amino-6-methyl-N-[(1-methyl-1,4,5,6-tetrahydrocyclopenta[c]pyrazol-3-yl)methyl]-5-(1,3-oxazol-2-yl)pyrazine-2-carboxamide]"
14,6.31,"Cc1cncnc1CNC(=O)c1nc(C)c(-c2ncco2)nc1N [Ex-175, 3-amino-6-methyl-N-[(5-methylpyrimidin-4-yl)methyl]-5-(1,3-oxazol-2-yl)pyrazine-2-carboxamide]"
15,0.217,"Cc1nc(C(=O)NCc2nccc3ccccc23)c(N)nc1-c1ncco1 [Ex-178, 3-amino-N-(isoquinolin-1-ylmethyl)-6-methyl-5-(1,3-oxazol-2-yl)pyrazine-2-carboxamide]"
16,0.1,"CCc1cccnc1CNC(=O)c1nc(C)c(-c2ncco2)nc1N [Ex-179, 3-amino-N-[(3-ethylpyridin-2-yl)methyl]-6-methyl-5-(1,3-oxazol-2-yl)pyrazine-2-carboxamide]"
